Series [1] has as its system S. aureus ATCC 29213. The experiment in a line: MIC, broth microdilution. The conditions noted are these: Staphylococcus aureus, ATCC29213. The series is classed as cell-based, Staphylococcus aureus. In outline:
(§1)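 Each strain, standardized to 0.5 McFarland and brought to a final 5 × 10^5 CFU/mL, was exposed to compound dilutions in genus-appropriate medium (cation-adjusted MH for S. aureus, BHI for enterococci). It was then held overnight under air at 37 °C before growth inhibition was scored.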
(In general: Broth dilution looks for growth in wells or tubes with falling amounts of substance.)

The subject of series [2] is methicillin-resistant S. aureus 63718. The experiment in a line: MIC, broth microdilution. It counts as cell-based, Staphylococcus aureus. The conditions noted are these: Staphylococcus aureus; MRSA1 = S. aureus 63718; read-out: MICs. In outline: as §1
Series [3] concerns methicillin-resistant S. aureus SA 3202. The series can be described thus: MIC, broth microdilution. It counts as cell-based, Staphylococcus aureus. The conditions noted are these: Staphylococcus aureus; MRSA3 = SA 3202; read-out: MICs. In outline: as §1
Series [4] has as its system methicillin-resistant S. aureus SA 630. The series can be described thus: MIC, broth microdilution. The series is classed as cell-based, Staphylococcus aureus. The conditions noted are these: Staphylococcus aureus; MRSA2 = SA 630; read-out: MICs. In outline: as §1
For series [5], the system named is vancomycin-resistant enterococci VRE 368. The series can be described thus: MIC, broth microdilution. It counts as cell-based, Enterococcus faecalis. The conditions noted are these: Enterococcus; VRE2 = VRE 368; read-out: MICs. In outline:
as §1

For series [6], the system named is vancomycin-resistant enterococci VRE 725B. The experiment in a line: MIC, broth microdilution. The series is classed as cell-based, Enterococcus faecalis. As to conditions: Enterococcus; VRE3 = VRE 725B; read-out: MICs. In outline: as §1
The test system of series [7] is Candida albicans CCM 8261. The series can be described thus: minimum fungistatic concentration, RPMI 1640. It counts as cell-based. As to conditions: CCM8261, CA = C albicans CCM 8261, 48 h. How it is done:
Fungistatic activity was tested similarly in RPMI (Roswell Park Memorial Institute) 1640 medium (Sigma, Pool, UK). […] A growth control and sterility control were included. The colonies of C. albicans grown overnight on Sabourad dextrose agar were suspended in sterile phosphate-buffered saline (PBS) to get cell density 0.5 McFarland. The inoculum was diluted to get a final concentration of 10^3 CFU/mL in the wells. Plates were inoculated and cultivated at 37 °C for 48 h. The minimum fungistatic concentration was visually evaluated as the lowest concentration of a tested compound, which inhibited 100% of yeast growth. 5-Flucytosin (Sigma, UK) was used as a positive control.

In series [8] the test system is S. aureus ATCC 29213. The experiment in a line: crystal violet uptake (membrane permeability). As to conditions: 64 µg/mL, 1 h; two-way ANOVA, Tukey's test, p < 0.05. It counts as cell-based, Staphylococcus aureus. How it is done: The alternation in membrane permeability was detected by crystal violet assay. Bacterial suspension treated by compounds 1f, 1g, and 1h (all 64 µg/mL) for 1 h was prepared. The uptake of crystal violet was expressed as a percentage compared to the original crystal violet solution.
The method of crystal violet uptake was used to study membrane alteration. Bacterial suspension was cultivated to log phase in CaMH and then harvested at 4500 rpm for 5 min. The cells were washed twice and resuspended in PBS containing 64 µg/mL of the tested compounds. […] A growth control without antibiotics and a control containing the same amount of DMSO as treated tubes were included. The tubes were cultivated at 37 °C for 1 h. After that, the tubes were centrifuged at 4500 rpm for 15 min and washed twice in PBS. The cells were resuspended in PBS containing crystal violet (10 µg/mL). After 15 min incubation at 37 °C and centrifugation (15 min, 4500 rpm), the absorbance of supernatant at 595 nm was measured. The experiment was repeated three times, and the results were averaged. The percentage of crystal violet uptake was counted according to the equation:(1) % of uptake = OD595 of sample/OD595 of crystal violet solution × 100

Details of series [9]: method as in PMID 30274224. The conditions noted are these: isocratic RP-HPLC, extrapolated lipophilicity index; cited from earlier work.
On the set-up of series [10]: method as in PMID 30274224. As to conditions: methanolic solutions, c = 8.0 × 10^−5 M; cited from earlier work.

Each structure is given as a SMILES string. Several values for one entry are separate records, joined by “and”; a condition that tells them apart may be missing. Equal values may be shown once. Read-outs that look alike come from different tables or passages of the source.

Regarding `CCCCCOc1cccc(NC(=O)OC(CN(CCC)CCC)CN2CCCC2)c1.Cl.Cl` (centres unmarked) [1f, 1-[3-(dipropylammonio)-2-({[3-(pentyloxy)phenyl]carbamoyl}-oxy)propyl]pyrrolidinium dichloride], the MIC was 16 µg/mL and 31.6 µM in the series with S. aureus ATCC 29213 [1] (SA = S. aureus ATCC 29213, read-out: MICs); 16 µg/mL in the series on S. aureus ATCC 29213 [1] (Table 7, planktonic cells of S. aureus ATCC 29213, read-out: MIC); 16 µg/mL and 31.6 µM in series [2]; 16 µg/mL and 31.6 µM in series [3]; 32 µg/mL and 63.2 µM in series [4]; 16 µg/mL and 31.6 µM in [5]. Further, the MIC in series [6] is 16 µg/mL and 31.6 µM; in series [7], 128 µg/mL and 252 µM. For the same molecule, the “crystal violet uptake compared with 1% Tween 20 (positive control)” value in the series on S. aureus ATCC 29213 [8] is “No statistically significant difference”. Moreover, the log kw in [9] is 4.6722. The “log ε2 (Ch-T)” value in [10] is 4.27.

(Values after paper PMC7168207, “Dibasic Derivatives of Phenylcarbamic Acid as Prospective Antibacterial Agents Interacting with Cytoplasmic Membrane” (Antibiotics, 2020).)
